Test results as given in PMC8599513, “Efficient biosynthesis of nucleoside cytokinin angustmycin A containing an unusual sugar system” (Nature Communications, 2021).

Assays:
[1] = molecular target: T1, AgmA (Streptomyces angustmyceticus, UniProt A0A5J4L869); assay: HPLC and LC-MS, adenine release; format: biochemical; conditions: 50 mM Tris-Cl pH 7.5, 1 mM substrate, 30 °C, 2 h
T1 construct: gene San01_08890; recombinant, overexpressed in and purified from E. coli BL21(DE3)
T1 sequence (A0A5J4L869 1-193): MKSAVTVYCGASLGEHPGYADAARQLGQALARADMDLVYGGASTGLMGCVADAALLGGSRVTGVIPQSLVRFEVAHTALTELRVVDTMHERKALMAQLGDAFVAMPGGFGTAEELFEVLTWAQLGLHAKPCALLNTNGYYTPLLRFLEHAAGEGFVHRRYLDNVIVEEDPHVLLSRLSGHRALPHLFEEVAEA

[2] = molecular target: T2, AgmE (Streptomyces angustmyceticus, UniProt A0A5J4LCM7); assay: HPLC and LC-MS, AMP formation; format: biochemical; conditions: 1 mM Mg2+, 50 mM PBS pH 7.5, 30 °C
T2 construct: gene San01_08850; recombinant, overexpressed in and purified from E. coli BL21(DE3)
T2 sequence (A0A5J4LCM7 1-178): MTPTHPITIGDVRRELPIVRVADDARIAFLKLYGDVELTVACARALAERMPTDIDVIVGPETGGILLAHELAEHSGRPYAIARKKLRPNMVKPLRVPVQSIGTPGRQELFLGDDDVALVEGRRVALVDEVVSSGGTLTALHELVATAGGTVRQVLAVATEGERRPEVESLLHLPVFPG

[3] = tested on: T3, AgmF; assay: HPLC dehydration assay; format: biochemical, Streptomyces angustmyceticus; conditions: dehydration to angustmycin A; kinetic assay conditions only in supplement
T3 construct: recombinant, overexpressed in and purified from E. coli BL21(DE3)

Nc1ncnc2c1ncn2[C@@H]1O[C@H](COP(=O)(O)O)[C@@H](O)[C@H]1O [AMP]
HPLC and LC-MS, adenine release [1]: AgmA is capable of consuming AMP/dAMP as a substrate

O=P(O)(O)OC[C@H]1O[C@H](OP(=O)(O)OP(=O)(O)O)[C@H](O)[C@@H]1O [PRPP]
HPLC and LC-MS, AMP formation ([2]; co-substrate adenine): assayed in vitro with the substrates adenine and phosphoribosyl pyrophosphate (PRPP)

Nc1ncnc2[nH]cnc12 [adenine]
HPLC and LC-MS, AMP formation ([2]; co-substrate PRPP 1 mM, methods print adenosine instead of adenine): assayed in vitro with the substrates adenine and phosphoribosyl pyrophosphate (PRPP)

Nc1ncnc2c1ncn2[C@]1(CO)O[C@H](CO)[C@@H](O)[C@H]1O [compound 2, angustmycin C]
Km [3]: 1380 ± 121 µM

Nc1ncnc2c1ncn2[C@H]1C[C@H](O)[C@@H](COP(=O)(O)O)O1 [dAMP]
HPLC and LC-MS, adenine release [1]: AgmA is capable of consuming AMP/dAMP as a substrate
